Laboratory results: ChEMBL document CHEMBL2390918, “Cinnamides as selective small-molecule inhibitors of a cellular model of breast cancer stem cells” (Bioorg Med Chem Lett, 2013)
Calls of active or inactive are those of the source. The rule behind the calls is not given here.

What was measured:
[1] = Selectivity ratio of EC50 for human CSC-like HMLE cells expressing shRNA and epithelial cadherin to EC50 for human HMLE cells expressing shRNA and GFP; assay type: ADME, cell-based; conditions: read-out: Ratio EC50
[2] = Cytotoxicity against human HMLE cells expressing shRNA and GFP after 70 to 74 hrs by Cell Titer Glo assay; assay type: cell-based
[3] = Cytotoxicity against human CSC-like HMLE cells expressing shRNA and epithelial cadherin after 70 to 74 hrs by Cell Titer Glo assay; assay type: functional, cell-based
IMR-32 = test: Displacement of [I125]Epibatidine from nAChR in human IMR32 cells at 10 uM after 60 mins relative to control; assay type: cell-based
[4] = Cytotoxicity against human HMLE cells expressing shRNA and GFP at 20 uM after 70 to 74 hrs by Cell Titer Glo assay; assay type: cell-based
[5] = Displacement of [3H]Glyburide from ATP-sensitive potassium channel in hamster pancreatic HIT-T15 cells after 2 hrs; assay type: cell-based, Mesocricetus auratus
HIT-T15 = test: Displacement of [3H]Glyburide from ATP-sensitive potassium channel in hamster pancreatic HIT-T15 cells at 10 uM after 2 hrs relative to control; assay type: cell-based; conditions: Mesocricetus auratus
[6] = Selectivity ratio of EC50 for human HMLE cells expressing shRNA and GFP to EC50 for human CSC-like HMLE cells expressing shRNA and epithelial cadherin; assay type: ADME, cell-based; conditions: read-out: Ratio EC50
[7] = Displacement of [3H]Idazoxan from central-type imidazole receptor 2 imidazoline binding site in Wistar rat cerebral cortex after 30 mins; assay type: tissue-based
Rattus norvegicus [8] = organism: Rattus norvegicus; test: Displacement of [3H]Idazoxan from central-type imidazole receptor 2 imidazoline binding site in Wistar rat cerebral cortex at 10 uM after 30 mins relative to control; assay type: tissue-based
CHO-K1 = test: Displacement of [125I]2-iodomelatonin from human recombinant melatonin receptor 1 expressed in CHOK1 cells at 10 uM after 3 hrs relative to control; assay type: cell-based
[9] = Displacement of [3H]Batrachotoxin from sodium channel site 2 in Wistar rat brain after 60 mins
Rattus norvegicus [10] = organism: Rattus norvegicus; conditions: Wistar, 10 uM
[11] = molecular target: Cysteinyl leukotriene receptor 1 (Homo sapiens) (UniProt Q9Y271); conditions: CHO-K1, 10 uM
Sequence of Cysteinyl leukotriene receptor 1 (Homo sapiens) (Q9Y271 whole entry): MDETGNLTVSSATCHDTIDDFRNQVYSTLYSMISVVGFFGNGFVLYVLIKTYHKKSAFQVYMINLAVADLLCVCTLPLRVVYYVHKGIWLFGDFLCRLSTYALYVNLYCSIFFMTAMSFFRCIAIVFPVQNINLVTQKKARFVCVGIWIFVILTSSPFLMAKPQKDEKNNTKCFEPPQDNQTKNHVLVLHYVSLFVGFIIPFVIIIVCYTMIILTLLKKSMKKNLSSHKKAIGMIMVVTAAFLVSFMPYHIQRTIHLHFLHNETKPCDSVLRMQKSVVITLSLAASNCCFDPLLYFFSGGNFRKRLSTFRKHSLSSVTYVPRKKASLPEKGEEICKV

[12] = molecular target: Histamine H3 receptor (Homo sapiens) (UniProt Q9Y5N1); conditions: CHO-K1, 10 uM
Sequence of Histamine H3 receptor (Homo sapiens) (Q9Y5N1 whole entry): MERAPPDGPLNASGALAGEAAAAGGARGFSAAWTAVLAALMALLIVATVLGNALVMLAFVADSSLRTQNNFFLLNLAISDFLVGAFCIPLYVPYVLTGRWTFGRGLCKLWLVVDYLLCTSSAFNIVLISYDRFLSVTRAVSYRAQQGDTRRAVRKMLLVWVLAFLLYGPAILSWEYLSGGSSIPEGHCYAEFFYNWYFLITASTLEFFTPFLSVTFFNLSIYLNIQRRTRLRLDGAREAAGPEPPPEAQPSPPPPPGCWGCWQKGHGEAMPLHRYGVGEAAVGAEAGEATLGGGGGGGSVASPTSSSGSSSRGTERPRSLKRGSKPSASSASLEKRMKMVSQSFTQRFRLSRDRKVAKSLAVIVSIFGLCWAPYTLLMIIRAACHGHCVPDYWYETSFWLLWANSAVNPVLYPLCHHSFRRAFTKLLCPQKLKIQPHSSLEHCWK

[13] = molecular target: 5-hydroxytryptamine receptor 3A (Homo sapiens) (UniProt P46098); conditions: HEK293, 10 uM
Sequence of 5-hydroxytryptamine receptor 3A (Homo sapiens) (P46098 whole entry): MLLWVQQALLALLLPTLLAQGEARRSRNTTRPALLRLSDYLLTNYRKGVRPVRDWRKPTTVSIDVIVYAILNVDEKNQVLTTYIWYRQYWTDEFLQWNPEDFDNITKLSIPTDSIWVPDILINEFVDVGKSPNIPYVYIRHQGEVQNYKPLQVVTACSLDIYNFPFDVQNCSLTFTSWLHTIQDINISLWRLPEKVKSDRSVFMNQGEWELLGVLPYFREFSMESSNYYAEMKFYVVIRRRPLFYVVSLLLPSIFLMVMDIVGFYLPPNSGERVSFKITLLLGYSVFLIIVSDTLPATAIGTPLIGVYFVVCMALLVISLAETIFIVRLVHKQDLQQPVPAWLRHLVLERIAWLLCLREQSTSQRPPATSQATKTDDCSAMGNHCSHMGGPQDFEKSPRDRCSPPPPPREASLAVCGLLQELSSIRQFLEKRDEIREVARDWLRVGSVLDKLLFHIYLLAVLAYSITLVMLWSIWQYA

[14] = molecular target: Mu-type opioid receptor (Homo sapiens) (UniProt P35372); conditions: CHO-K1, 10 uM
Sequence of Mu-type opioid receptor (Homo sapiens) (P35372 whole entry): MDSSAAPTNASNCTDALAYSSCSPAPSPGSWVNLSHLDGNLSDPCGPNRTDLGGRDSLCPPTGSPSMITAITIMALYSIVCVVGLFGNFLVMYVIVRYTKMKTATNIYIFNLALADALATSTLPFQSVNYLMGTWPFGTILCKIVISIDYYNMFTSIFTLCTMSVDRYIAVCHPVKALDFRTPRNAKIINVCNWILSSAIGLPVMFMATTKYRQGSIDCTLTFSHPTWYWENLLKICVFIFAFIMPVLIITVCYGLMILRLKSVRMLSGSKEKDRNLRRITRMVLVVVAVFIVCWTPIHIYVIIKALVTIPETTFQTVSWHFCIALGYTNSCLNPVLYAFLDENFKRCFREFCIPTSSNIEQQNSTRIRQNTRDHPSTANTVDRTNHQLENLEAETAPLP

[15] = molecular target: 5-hydroxytryptamine receptor 2B (Homo sapiens) (UniProt P41595); conditions: CHO-K1, 10 uM
Sequence of 5-hydroxytryptamine receptor 2B (Homo sapiens) (P41595 whole entry): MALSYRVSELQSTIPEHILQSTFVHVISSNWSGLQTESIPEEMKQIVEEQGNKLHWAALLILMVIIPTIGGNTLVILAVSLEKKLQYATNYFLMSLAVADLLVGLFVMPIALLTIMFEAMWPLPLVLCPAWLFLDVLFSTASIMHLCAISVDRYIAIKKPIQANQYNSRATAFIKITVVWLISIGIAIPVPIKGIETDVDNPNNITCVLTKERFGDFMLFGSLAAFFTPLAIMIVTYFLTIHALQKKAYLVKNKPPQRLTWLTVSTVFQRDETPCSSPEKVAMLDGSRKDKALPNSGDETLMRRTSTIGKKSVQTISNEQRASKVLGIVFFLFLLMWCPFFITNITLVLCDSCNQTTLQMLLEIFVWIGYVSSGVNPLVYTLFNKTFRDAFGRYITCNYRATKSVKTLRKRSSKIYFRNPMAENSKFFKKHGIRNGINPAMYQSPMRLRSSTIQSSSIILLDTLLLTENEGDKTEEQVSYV

Rattus norvegicus [16] = organism: Rattus norvegicus; test: Displacement of [125I]Triiodothyronine from thyroid hormone receptor in Wistar rat liver at 10 uM after 18 hrs relative to control
HMLE = test: Cytotoxicity against human CSC-like HMLE cells expressing shRNA and epithelial cadherin at 20 uM after 70 to 74 hrs by Cell Titer Glo assay; assay type: functional, cell-based
[17] = Displacement of [3H]GABA from GABA transporter in Wistar rat cerebral cortex after 20 mins; assay type: tissue-based
Rattus norvegicus [18] = organism: Rattus norvegicus; test: Displacement of [3H]GABA from GABA transporter in Wistar rat cerebral cortex at 10 uM after 20 mins relative to control; assay type: tissue-based
[19] = molecular target: Sodium-dependent dopamine transporter (Homo sapiens) (UniProt Q01959); conditions: CHO-K1, 10 uM
Sequence of Sodium-dependent dopamine transporter (Homo sapiens) (Q01959 whole entry): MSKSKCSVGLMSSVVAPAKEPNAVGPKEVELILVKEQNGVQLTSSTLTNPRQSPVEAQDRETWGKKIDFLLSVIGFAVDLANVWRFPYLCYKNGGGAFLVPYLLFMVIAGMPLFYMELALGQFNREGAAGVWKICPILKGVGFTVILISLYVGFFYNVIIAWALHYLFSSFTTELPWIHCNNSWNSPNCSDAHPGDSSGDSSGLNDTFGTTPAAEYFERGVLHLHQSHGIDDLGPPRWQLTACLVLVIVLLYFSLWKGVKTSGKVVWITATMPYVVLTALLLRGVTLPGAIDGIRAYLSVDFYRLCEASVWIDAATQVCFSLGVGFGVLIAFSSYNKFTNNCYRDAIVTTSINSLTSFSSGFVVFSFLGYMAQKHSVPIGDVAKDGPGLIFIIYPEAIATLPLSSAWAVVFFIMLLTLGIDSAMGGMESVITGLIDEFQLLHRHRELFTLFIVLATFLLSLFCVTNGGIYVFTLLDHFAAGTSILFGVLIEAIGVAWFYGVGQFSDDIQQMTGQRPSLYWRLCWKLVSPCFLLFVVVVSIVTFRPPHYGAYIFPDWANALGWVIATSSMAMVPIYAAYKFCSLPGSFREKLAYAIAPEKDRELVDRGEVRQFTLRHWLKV

[20] = Displacement of [3H]alpha, beta-methylene-ATP from purinergic P2X receptor in New Zealand albino rabbit urinary bladder after 30 mins; design: species or system Oryctolagus cuniculus
Oryctolagus cuniculus = organism: Oryctolagus cuniculus; test: Displacement of [3H]alpha, beta-methylene-ATP from purinergic P2X receptor in New Zealand albino rabbit urinary bladder at 10 uM after 30 mins relative to control
[21] = molecular target: Neuropeptide Y receptor type 2 (Homo sapiens, UniProt P49146); test: Displacement of [125I]Peptide YY from neuropeptide Y receptor type 2 in human KAN-TS cells after 2 hrs; assay type: cell-based
Sequence of Neuropeptide Y receptor type 2 (P49146 whole entry): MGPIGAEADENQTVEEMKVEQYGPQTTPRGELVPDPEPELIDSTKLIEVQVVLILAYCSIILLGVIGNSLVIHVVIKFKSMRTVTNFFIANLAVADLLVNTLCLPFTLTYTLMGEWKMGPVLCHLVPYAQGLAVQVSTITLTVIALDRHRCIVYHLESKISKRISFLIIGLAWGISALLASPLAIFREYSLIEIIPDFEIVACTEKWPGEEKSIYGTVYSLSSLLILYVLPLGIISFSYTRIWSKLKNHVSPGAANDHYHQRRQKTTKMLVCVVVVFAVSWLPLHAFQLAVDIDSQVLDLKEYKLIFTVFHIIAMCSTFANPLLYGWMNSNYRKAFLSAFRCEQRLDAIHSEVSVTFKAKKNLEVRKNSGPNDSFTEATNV

[22] = molecular target: Neuropeptide Y receptor type 2 (Homo sapiens) (UniProt P49146); test: Displacement of [125I]Peptide-YY from neuropeptide Y receptor type 2 in human KAN-TS cells at 10 uM after 2 hrs relative to control; assay type: cell-based
Sequence of Neuropeptide Y receptor type 2 (Homo sapiens) (P49146 whole entry): as above

[23] = Displacement of [3H]PDBu from phorbol ester receptor in ICR mouse brain after 60 mins
Mus musculus = organism: Mus musculus; test: Displacement of [3H]PDBu from phorbol ester receptor in ICR mouse brain at 10 uM after 60 mins relative to control
[24] = molecular target: 5-hydroxytryptamine receptor 1A (Homo sapiens) (UniProt P08908); test: Displacement of [3H]8-OH-DPAT from human recombinant 5HT1A receptor expressed in CHOK1 cells at 10 uM after 60 mins relative to control; assay type: cell-based; conditions: CHO-K1
Sequence of 5-hydroxytryptamine receptor 1A (Homo sapiens) (P08908 whole entry): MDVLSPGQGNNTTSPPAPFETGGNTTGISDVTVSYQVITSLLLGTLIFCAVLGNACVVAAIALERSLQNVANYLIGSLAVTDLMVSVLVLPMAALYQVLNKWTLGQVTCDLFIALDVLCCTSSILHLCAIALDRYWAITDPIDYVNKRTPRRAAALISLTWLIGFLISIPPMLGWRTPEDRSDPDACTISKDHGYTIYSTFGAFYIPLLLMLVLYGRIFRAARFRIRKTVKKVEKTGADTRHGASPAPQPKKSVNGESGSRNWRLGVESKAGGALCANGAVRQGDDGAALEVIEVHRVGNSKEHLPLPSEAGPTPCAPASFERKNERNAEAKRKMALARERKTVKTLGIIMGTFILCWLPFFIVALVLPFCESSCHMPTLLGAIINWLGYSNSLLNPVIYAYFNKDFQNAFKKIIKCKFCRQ

[25] = molecular target: Platelet-activating factor receptor (Homo sapiens) (UniProt P25105); test: Displacement of [3H]PAF from platelet activating factor receptor in human platelets at 10 uM after 3 hrs relative to control
Sequence of Platelet-activating factor receptor (Homo sapiens) (P25105 whole entry): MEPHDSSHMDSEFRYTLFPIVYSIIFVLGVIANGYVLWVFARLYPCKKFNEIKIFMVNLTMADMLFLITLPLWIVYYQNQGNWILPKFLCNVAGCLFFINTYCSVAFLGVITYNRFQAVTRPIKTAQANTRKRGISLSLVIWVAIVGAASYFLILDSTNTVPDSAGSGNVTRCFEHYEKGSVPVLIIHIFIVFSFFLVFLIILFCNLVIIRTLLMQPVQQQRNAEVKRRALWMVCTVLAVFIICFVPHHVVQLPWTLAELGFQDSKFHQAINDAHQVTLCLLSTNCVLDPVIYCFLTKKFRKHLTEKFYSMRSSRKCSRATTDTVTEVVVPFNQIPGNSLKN

Rattus norvegicus [26] = organism: Rattus norvegicus; test: Displacement of [3H]Rolipram from rolipram binding site in Wistar rat brain at 10 uM after 60 mins relative to control
[27] = Solubility in PBS at 100 uM after 24 hrs at pH 7.4 by UPLC-MS analysis; assay type: physicochemical
Substance-P receptor [28] = molecular target: T1, Substance-P receptor (Homo sapiens, UniProt P25103); test: Displacement of [3H]Substance P from human recombinant substance P receptor expressed in CHO cells after 90 mins; assay type: cell-based
T1 sequence (P25103 whole entry): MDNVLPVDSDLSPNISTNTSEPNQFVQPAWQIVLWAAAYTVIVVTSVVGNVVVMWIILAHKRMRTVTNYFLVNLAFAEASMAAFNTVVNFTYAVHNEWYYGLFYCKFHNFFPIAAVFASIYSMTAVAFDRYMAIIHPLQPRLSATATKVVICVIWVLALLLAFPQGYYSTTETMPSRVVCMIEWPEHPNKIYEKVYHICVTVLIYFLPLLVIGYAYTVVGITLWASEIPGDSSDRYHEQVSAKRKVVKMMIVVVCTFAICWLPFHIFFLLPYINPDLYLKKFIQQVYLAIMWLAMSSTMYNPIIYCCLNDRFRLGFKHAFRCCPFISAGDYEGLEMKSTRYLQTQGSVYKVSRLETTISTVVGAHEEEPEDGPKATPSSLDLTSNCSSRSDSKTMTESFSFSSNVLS

Substance-P receptor [29] = molecular target: T1, Substance-P receptor; test: Displacement of [3H]Substance P from human recombinant substance P receptor expressed in CHO cells at 10 uM after 90 mins relative to control; assay type: cell-based
[30] = molecular target: Delta-type opioid receptor (Homo sapiens) (UniProt P41143); conditions: HEK293, 10 uM
Sequence of Delta-type opioid receptor (Homo sapiens) (P41143 whole entry): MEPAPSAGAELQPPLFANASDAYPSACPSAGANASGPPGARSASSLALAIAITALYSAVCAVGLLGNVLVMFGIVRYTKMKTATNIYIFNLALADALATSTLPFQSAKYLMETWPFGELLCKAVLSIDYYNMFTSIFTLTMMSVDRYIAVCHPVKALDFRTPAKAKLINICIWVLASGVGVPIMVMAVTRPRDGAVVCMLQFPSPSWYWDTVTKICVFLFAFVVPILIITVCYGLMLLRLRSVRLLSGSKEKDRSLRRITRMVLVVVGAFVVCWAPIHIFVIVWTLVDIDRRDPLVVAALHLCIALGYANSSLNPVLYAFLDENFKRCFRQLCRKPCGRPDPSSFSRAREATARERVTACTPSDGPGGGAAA

[31] = molecular target: Prostaglandin E2 receptor EP4 subtype (Homo sapiens) (UniProt P35408); test: Displacement of [3H]PGE2 from human recombinant prostanoid EP4 receptor in CHEM1 cells at 10 uM after 2 hrs relative to control; assay type: cell-based

Molecule: CC(C)c1ccc(/C=C/C(=O)NC2CCCC2)cc1
- selectivity ratio [1]: 2.07
- EC50 [2]: 59.6 µM
- EC50 [3]: 123 µM

Molecule: Clc1ccc(C2CC3CCC2N3)cn1 (stereo not given)
- inhibition (IMR-32): 12%

Molecule: CC(C)c1ccc(/C=C/C(=O)NC2=NC(=O)CS2)cc1
- selectivity ratio [1]: 2.03
- EC50 [2]: 13.3 µM
- EC50 [3]: 27 µM

Molecule: CC(C)c1ccc(CCC(=O)NC2=NCCS2)cc1
- Activity [4]: Non-toxic
- EC50 [3]: 9.91 µM

Molecule: COc1ccc(Cl)cc1C(=O)NCCc1ccc(S(=O)(=O)NC(=O)NC2CCCCC2)cc1 [GLYBURIDE]
- IC50 [5]: 0.0057 µM
- Ki [5]: 0.00065 µM
- inhibition (HIT-T15): 10%

Molecule: CC(C)c1ccc(/C=C/C(=O)Nc2ccccc2)cc1
- selectivity ratio [1]: 0.95
- EC50 [2]: 3.44 µM
- EC50 [3]: 3.28 µM

Molecule: CC(C)c1ccc(/C=C/C(=O)Nc2nccs2)cc1
- selectivity ratio [1]: 2.05
- EC50 [2]: 3.55 µM
- EC50 [3]: 7.26 µM

Molecule: O=C(/C=C/c1cccc(Cl)c1)NC1=NCCS1
- selectivity ratio [6]: 1.44
- EC50 [2]: 21.5 µM
- EC50 [3]: 15 µM

Molecule: O=C(/C=C/c1ccc(Cl)cc1)NC1=NCCS1
- selectivity ratio [6]: 0.73
- EC50 [2]: 9.97 µM
- EC50 [3]: 13.6 µM

Molecule: c1ccc2c(c1)OCC(C1=NCCN1)O2 (stereo not given) [IDAZOXAN]
- IC50 [7]: 0.012 µM
- Ki [7]: 0.008 µM
- inhibition (Rattus norvegicus [8]): 11%

Molecule: COc1cc(C(C)C)ccc1/C=C/C(=O)NC1=NCCS1
- Activity [4]: Non-toxic
- EC50 [3]: 28.4 µM

Molecule: COc1ccc2[nH]cc(CCNC(C)=O)c2c1
- inhibition (CHO-K1): 11%

Molecule: CCCCOc1cc(C(=O)NCCN(CC)CC)c2ccccc2n1 [DIBUCAINE]
- IC50 [9]: 0.61 µM
- Ki [9]: 0.55 µM
- inhibition (Rattus norvegicus [10]): 10%

Molecule: CN(C)c1ccc(/C=C/C(=O)NC2=NCCS2)cc1
- Activity [4]: Non-toxic
- EC50 [3]: 27.4 µM

Molecule: CCCCC/C=C\C\C=C/C=C/C=C/[C@@H](SC[C@H](N)C(=O)NCC(=O)O)[C@@H](O)CCCC(=O)O
- inhibition [11]: -10%

Molecule: C[C@@H](N)Cc1c[nH]cn1
- inhibition [12]: 6%

Molecule: O=C(/C=C/c1ccc(-c2cccnc2)cc1)NC1=NCCS1
- selectivity ratio [6]: 1.47
- EC50 [2]: 5.65 µM
- EC50 [3]: 3.85 µM

Molecule: CN1[C@@H]2CC[C@H]1C[C@@H](OC(=O)c1cc(Cl)cc(Cl)c1)C2
- inhibition [13]: 3%

Molecule: C[C@@H](NC(=O)[C@@H](N)Cc1ccc(O)cc1)C(=O)NCC(=O)N(C)[C@@H](Cc1ccccc1)C(=O)NCCO
- inhibition [14]: 4%

Molecule: O=C(c1ccc(F)cc1)C1CCN(CCn2c(=O)[nH]c3ccccc3c2=O)CC1
- inhibition [15]: 42%

Molecule: N[C@@H](Cc1cc(I)c(Oc2ccc(O)c(I)c2)c(I)c1)C(=O)O
- inhibition (Rattus norvegicus [16]): 6%

Molecule: O=C(/C=C/c1ccc(-c2ccccc2)cc1)NC1=NCCS1
- selectivity ratio [6]: 53.1
- EC50 [2]: 34.6 µM
- EC50 [3]: 0.65 µM

Molecule: COc1ccccc1/C=C/C(=O)NC1=NCCS1
- EC50 [2]: 93.3 µM
- Activity (HMLE): inactive

Molecule: COc1cccc(/C=C/C(=O)NC2=NCCS2)c1
- EC50 [2]: 96.2 µM
- EC50 [3]: 62.1 µM

Molecule: CC(C)c1ccc(/C=C/C(=O)Nc2nccn2C)cc1
- selectivity ratio [1]: 1.28
- EC50 [2]: 4.65 µM
- EC50 [3]: 5.97 µM

Molecule: O=C(O)C1=CCCN(CCON=C(c2ccccc2)c2ccccc2)C1
- IC50 [17]: 0.2 µM
- Ki [17]: 0.2 µM
- inhibition (Rattus norvegicus [18]): -6%

Molecule: CC(C)(C)c1ccc(/C=C/C(=O)NC2=NCCS2)cc1
- EC50 [2]: 20.6 µM
- Activity (HMLE): inactive

Molecule: O=C(/C=C/c1ccccc1Cl)NC1=NCCS1
- Activity [4]: Non-toxic
- EC50 [3]: 35 µM

Molecule: Fc1ccc(C(OCCN2CCN(CCCc3ccccc3)CC2)c2ccc(F)cc2)cc1
- inhibition [19]: 5%

Molecule: Nc1ncnc2c1ncn2[C@@H]1O[C@H](COP(=O)(O)CP(=O)(O)OP(=O)(O)O)[C@@H](O)[C@H]1O [DIPHOSPHOMETHYLPHOSPHONIC ACID ADENOSYL ESTER]
- IC50 [20]: 0.082 µM
- Ki [20]: 0.018 µM
- inhibition (Oryctolagus cuniculus): 3%

Molecule: H-PAEDLARYYSALRHYITRRQRY-NH2
- IC50 [21]: 0.00021 µM
- Ki [21]: 0.00012 µM
- inhibition [22]: 6%

Molecule: CCCCCCCCCCCCCC(=O)O[C@@H]1[C@@H](C)[C@@]2(O)[C@@H](C=C(CO)C[C@]3(O)C(=O)C(C)=C[C@@H]23)[C@@H]2C(C)(C)[C@]12OC(C)=O [PHORBOL MYRISTATE ACETATE]
- IC50 [23]: 0.00079 µM
- Ki [23]: 0.00059 µM
- inhibition (Mus musculus): -1%

Molecule: CN1C[C@H](CNC(=O)OCc2ccccc2)C[C@@H]2c3cccc4c3c(cn4C)C[C@H]21
- inhibition [24]: -8%

Molecule: CC(C)c1ccc(/C=C/C(=O)Nc2ncc[nH]2)cc1
- EC50 [2]: 51.6 µM
- Activity (HMLE): inactive

Molecule: CCCCCCCCCCCCCCCCOC[C@H](COP(=O)([O-])OCC[N+](C)(C)C)OC(C)=O
- inhibition [25]: 6%

Molecule: COc1ccc(C2CNC(=O)C2)cc1OC1CCCC1 (stereo not given)
- inhibition (Rattus norvegicus [26]): 16%

Molecule: Cc1ccc(/C=C/C(=O)NC2=NCCS2)cc1
- Activity [4]: Non-toxic
- EC50 [3]: 16 µM

Molecule: CC(C)c1ccc(/C=C/C(=O)NC2=NCCS2)cc1
- solubility at 24 h, 100 µM [27]: < 1 µM
- selectivity ratio [1]: 21.5
- EC50 [2]: 2.35 µM
- EC50 [3]: 50.6 µM

Molecule: CC(C)Cc1ccc(/C=C/C(=O)NC2=NCCS2)cc1
- selectivity ratio [6]: 4.54
- EC50 [2]: 2.17 µM
- EC50 [3]: 0.478 µM

Molecule: CC(C)c1ccc(/C=C/C(=O)N(C)C2=NCCS2)cc1
- EC50 [2]: 21.1 µM
- Activity (HMLE): inactive

Molecule: Ic1ccccc1N[C@@H]1C2CCN(CC2)[C@@H]1C(c1ccccc1)c1ccccc1
- IC50 (Substance-P receptor [28]): 0.0036 µM
- Ki (Substance-P receptor [28]): 0.0026 µM
- inhibition (Substance-P receptor [29]): 0%

Molecule: Oc1ccc2c3c1O[C@H]1c4[nH]c5ccccc5c4C[C@@]4(O)[C@@H](C2)N(CC2CC2)CC[C@]314
- inhibition [30]: 18%

Molecule: CC(C)c1ccc(/C=C/C(=O)Nc2nncs2)cc1
- selectivity ratio [1]: 0.73
- EC50 [2]: 13.6 µM
- EC50 [3]: 9.97 µM

Molecule: CCCCC[C@H](O)/C=C/[C@H]1[C@H](O)CC(=O)[C@@H]1C/C=C\CCCC(=O)O
- inhibition [31]: 5%
